Drawing on US9499554B2, “Anti-influenza compositions and methods” (priority 2013, dated 2016), this text covers EC50 for one compound.

Values after ≈ are worked out from the molar mass of the structure shown. Where two headings read alike, the source gives them in different places.

In assay [1] the test system is Influenza A H5N1 VN/1203/2004 Hybrid (on H1N1 backbone). The assay is described as follows: microbe, parasite or virus in culture. Format: cell-based. The following applies: Influenza A virus.
For assay [2] the test system is unchanged. Description: microbe, parasite or virus in culture. To be noted: Influenza A virus, read-out: EC50, Visual CPE Assay. Format: cell-based.

As for `Nc1ncnc2c([C@@H]3N[C@H](CO)[C@@H](O)[C@H]3O)c[nH]c12` [compound 1, (2S,3S,4R,5R)-2-(4-Amino-5H-pyrrolo[3,2-d]pyrimidin-7-yl)-5-(hydroxymethyl)pyrrolidine-3,4-diol], the half-maximal effective concentration (EC50) (commonly the concentration giving half of the maximal effect) in assay [1] (MDCK, read-out: EC50, antiviral activity in MDCK cells) stood at 0.99 µg/mL (≈ 3.73 µM); in assay [1] (read-out: EC50, Neutral Red Uptake Assay), 0.99 µg/mL (≈ 3.73 µM); in assay [2], 0.63 µg/mL (≈ 2.37 µM).
